{"source": "ChEMBL document CHEMBL1151646", "about": "“Methyl -Orcinolcarboxylate and Depsides from Parmelia furfuracea” (1985)", "assay_type_in_all_cases": "functional", "conditions_in_all_cases": "read-out: IZ", "key": {"Saccharomyces cerevisiae [1]": {"tested_on": "Saccharomyces cerevisiae", "test": "Antimicrobial activity against Saccharomyces cerevisiae at 400 ug"}, "Penicillium digitatum [2]": {"tested_on": "Penicillium digitatum", "test": "Antimicrobial activity against Penicillium digitatum at 40 ug"}, "Bacillus subtilis [3]": {"tested_on": "Bacillus subtilis", "test": "Antimicrobial activity against Bacillus subtilis ATCC 6633 at 400 ug"}, "Escherichia coli [4]": {"tested_on": "Escherichia coli", "test": "Antimicrobial activity against Escherichia coli B ATCC 11303 at 400 ug"}, "Saccharomyces cerevisiae [5]": {"tested_on": "Saccharomyces cerevisiae", "test": "Antimicrobial activity against Saccharomyces cerevisiae at 24 ug"}, "Penicillium digitatum [6]": {"tested_on": "Penicillium digitatum", "test": "Antimicrobial activity against Penicillium digitatum at 24 ug"}, "Escherichia coli [7]": {"tested_on": "Escherichia coli", "test": "Antimicrobial activity against Escherichia coli B ATCC 11303 at 6 ug"}, "Bacillus subtilis [8]": {"tested_on": "Bacillus subtilis", "test": "Antimicrobial activity against Bacillus subtilis ATCC 6633 at 0.6 ug"}}, "note": "Where a name gives a salt, the structure may show the parent alone.", "data": [{"smiles": "COC(=O)c1c(C)cc(O)c(C)c1O", "note": "[ATRARIC ACID]", "values": [{"measurement": "zone of inhibition at 400 µg/disc", "setting": "Saccharomyces cerevisiae [1]", "value": 18, "unit": "mm"}, {"measurement": "zone of inhibition at 40 µg/disc", "setting": "Penicillium digitatum [2]", "value": 29, "unit": "mm"}, {"measurement": "zone of inhibition at 400 µg/disc", "setting": "Bacillus subtilis [3]", "value": 17, "unit": "mm"}, {"measurement": "zone of inhibition at 400 µg/disc", "setting": "Escherichia coli [4]", "value": 15, "unit": "mm"}]}, {"smiles": "CCCCC[C@@H](O)[C@H]1C(=O)O[C@H](C)[C@@H](O)/C=C/C=C/C=C/C=C/C=C(\\C)[C@@H](O)C[C@H](O)C[C@H](O)C[C@H](O)C[C@H](O)C[C@H](O)C[C@@H]1O", "note": "[FILIPIN]", "values": [{"measurement": "zone of inhibition at 24 µg/disc", "setting": "Saccharomyces cerevisiae [5]", "value": 21, "unit": "mm"}, {"measurement": "zone of inhibition at 24 µg/disc", "setting": "Penicillium digitatum [6]", "value": 29, "unit": "mm"}]}, {"smiles": "CN[C@@H]1[C@H](O[C@H]2[C@H](O[C@H]3[C@H](O)[C@@H](O)[C@H](N=C(N)N)[C@@H](O)[C@@H]3N=C(N)N)O[C@@H](C)[C@]2(O)C=O)O[C@@H](CO)[C@H](O)[C@H]1O", "note": "[STREPTOMYCIN SULFATE]", "values": [{"measurement": "zone of inhibition at 6 µg/disc", "setting": "Escherichia coli [7]", "value": 17, "unit": "mm"}, {"measurement": "zone of inhibition at 0.6 µg/disc", "setting": "Bacillus subtilis [8]", "value": 16, "unit": "mm"}]}]}
